In patent US20100099694A1, “2-ANILINO-4-HETEROARYL PYRIMIDINE DERIVATIVES, AND PREPARATION THEREOF AS MEDICAMENTS, PHARMACEUTICAL COMPOSITIONS, AND IN PARTICULAR IKK INHIBITORS” (SANOFI-AVENTIS, priority 2007, published 2010):

melting point [°C]	Compound
215.4	O=S(=O)(c1ccc(Nc2nccc(N3CCc4cc(F)ccc43)n2)cc1)N(CCN1CCCC1)C1CCN(C2CC2)CC1 [Example 2, N-(1-Cyclopropylpiperidin-4-yl)-4-[4-(5-fluoro-2,3-dihydroindol-1-yl)pyrimidin-2-ylamino]-N-(2-pyrrolidin-1-ylethyl)benzenesulphonamide]
140	O=S(=O)(c1ccc(Nc2nccc(N3CCc4cc(F)ccc43)n2)cc1)N(CCN1CCCC1)C1CCN(Cc2ccsc2)CC1 [Example 4, 4-[4-(5-Fluoro-2,3-dihydroindol-1-yl)pyrimidin-2-ylamino]-N-(2-pyrrolidin-1-ylethyl)-N-(1-thiophen-3-ylmethylpiperidin-4-yl)benzenesulphonamide]
147	O=S(=O)(c1ccc(Nc2nccc(N3CCc4cc(F)ccc43)n2)cc1)N(CCN1CCCC1)C1CCN(CCC(F)(F)F)CC1 [Example 6, 4-[4-(5-Fluoro-2,3-dihydroindol-1-yl)-pyrimidin-2-ylamino]-N-(2-pyrrolidin-1-ylethyl)-N-[1-(3,3,3-trifluoropropyl)piperidin-4-yl]benzenesulphonamide]
100	O=S(=O)(c1ccc(Nc2nccc(N3CCc4cc(F)ccc43)n2)cc1)N(CCN1CCCC1)C1CCOCC1 [Example 8, 4-[4-(5-Fluoro-2,3-dihydroindol-1-yl)pyrimidin-2-ylamino]-N-(2-pyrrolidin-1-ylethyl)-N-(tetrahydropyran-4-yl)benzenesulphonamide]
269.5	O=S(=O)(c1ccc(Nc2nccc(N3CCc4cc(F)ccc43)n2)cc1)N(CCN1CCCC1)C1CCNCC1 [Example 1, 4-[4-(5-Fluoro-2,3-dihydroindol-1-yl)pyrimidin-2-ylamino]-N-piperidin-4-yl-N-(2-pyrrolidin-1-yl-ethyl)benzenesulphonamide]
94	Cn1cccc1CN1CCC(N(CCN2CCCC2)S(=O)(=O)c2ccc(Nc3nccc(N4CCc5cc(F)ccc54)n3)cc2)CC1 [Example 5, 4-[4-(5-Fluoro-2,3-dihydroindol-1-yl)-pyrimidin-2-ylamino]-N-[1-(1-methyl-1H-pyrrol-2-ylmethyl)piperidin-4-yl]-N-(2-pyrrolidin-1-ylethyl)benzenesulphonamide]
139.3	O=S(=O)(c1ccc(Nc2nccc(N3CCc4cc(F)ccc43)n2)cc1)N(CCN1CCCC1)C1CCN(CC(F)(F)F)CC1 [Example 7, 4-[4-(5-Fluoro-2,3-dihydroindol-1-yl)-pyrimidin-2-ylamino]-N-(2-pyrrolidin-1-ylethyl)-N-[1-(2,2,2-trifluoroethyl)piperidin-4-yl]benzenesulphonamide]
198	O=S(=O)(c1ccc(Nc2nccc(N3CCc4cc(F)ccc43)n2)cc1)N(CCN1CCCC1)C1CCN(CCCC(F)(F)F)CC1 [Example 3, 4-[4-(5-Fluoro-2,3-dihydroindol-1-yl)-pyrimidin-2-ylamino]-N-(2-pyrrolidin-1-ylethyl)-N-[1-(4,4,4-trifluorobutyl)piperidin-4-yl]benzenesulphonamide]
